Four compounds from patent publication US7504513B2, “Thiazolyl-benzimidazoles” (Hoffman-La Roche Inc., priority 2006, dated 2009) can be followed below.

The assay concerns the target T1, GST-Plk1 (Homo sapiens, UniProt P53350).
T1 construct: Full-length, active GST-Plk1 was purified from Sf9 insect cells; made in house; host or cells: Sf9 insect cells
The assay is described as follows: Biochemical Characterization Assay: HTRF kinase assay, GST-Plk1 phosphorylation of GST-p53. Conditions: full-length active GST-Plk1, GST-p53 substrate, ATP, 37° C. for 35 minutes, HTRF signal. The method, then:
Full-length, active GST-Plk1 was purified from Sf9 insect cells, and full-length GST-p53 was purified in E. coli. Anti-phospho p53 antibody was purchased from Cell Signaling Technology. Europium-conjugated anti-rabbit antibody was purchased from PerkinElmer Life and Analytical Sciences. APC-conjugated anti-GST antibody was purchased from Prozyme.
To two microliters of compound (0.6 nM-4 mM) in DMSO or plain DMSO for control wells, 38 microliters of 20 mM HEPES pH 7, 50 mM NaCl, 10 mM MgCl2, 0.5 mM TCEP, 0.1 mM sodium orthovanadate, 0.1 mg/ml BSA, and 0.05% Triton X-100 (Kinase Assay Buffer) were added. Eight microliters of the compound solution were added to a 384-well black microtiter plate, followed by six microliters of GST-p53 (17 ug/ml) and ATP (333 uM) in Kinase Assay Buffer. Six microliters of GST-Plk1 (3 ug/ml) in Kinase Assay Buffer were then added and the solution incubated at 37° C. for 35 minutes. Six microliters of solution containing 43 mM EDTA to stop the reaction and a 1:600 dilution of anti-phospho-p53 antibody in 20 mM HEPES pH 7, 50 mM NaCl, and 0.5 mg/ml BSA (Antibody Binding Buffer) were added and the solution incubated at 37° C. for 30 minutes. Six microliters of solution containing 9 nM europium-conjugated anti-rabbit antibody and 120 nM APC-conjugated anti-GST antibody in Antibody Binding Buffer were then added and the mixture incubated at room temperature for 1.5 hours. The HTRF signal was read on the Envision reader (PerkinElmer Life and Analytical Sciences).

T1 sequence (P53350 whole entry): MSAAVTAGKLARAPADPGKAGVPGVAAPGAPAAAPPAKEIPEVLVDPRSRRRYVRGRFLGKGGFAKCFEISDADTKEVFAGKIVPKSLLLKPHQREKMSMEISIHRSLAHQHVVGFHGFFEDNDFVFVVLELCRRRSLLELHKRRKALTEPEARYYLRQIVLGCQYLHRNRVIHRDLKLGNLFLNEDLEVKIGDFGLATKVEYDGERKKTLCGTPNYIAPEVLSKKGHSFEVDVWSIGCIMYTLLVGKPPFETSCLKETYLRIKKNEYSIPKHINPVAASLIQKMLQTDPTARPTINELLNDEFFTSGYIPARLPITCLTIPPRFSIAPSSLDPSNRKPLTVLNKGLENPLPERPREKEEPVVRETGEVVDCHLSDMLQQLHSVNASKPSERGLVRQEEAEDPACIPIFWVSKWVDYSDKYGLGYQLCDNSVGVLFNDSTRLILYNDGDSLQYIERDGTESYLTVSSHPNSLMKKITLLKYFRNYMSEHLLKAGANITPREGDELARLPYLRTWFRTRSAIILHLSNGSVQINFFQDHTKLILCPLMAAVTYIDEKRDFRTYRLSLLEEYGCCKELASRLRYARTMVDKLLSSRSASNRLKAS

The compound `COc1cc2ncn(-c3nc(-c4ccsc4)c(C(=O)O)s3)c2cc1OC` [Example 25, 2-(5,6-Dimethoxy-benzoimidazol-1-yl)-4-thiophen-3-yl-thiazole-5-carboxylic acid] returned a concentration for half-maximal inhibition (IC50) of 781 nM. In the case of `COc1cc2ncn(-c3nc(-c4ccc(F)c(Cl)c4)c(C(=O)O)s3)c2cc1OC` [Example 19, 4-(3-Chloro-4-fluoro-phenyl)-2-(5,6-dimethoxy-benzoimidazol-1-yl)-thiazole-5-carboxylic acid] it was 87 nM; in that of “2-(4-Hydroxy-benzoimidazol-1-yl)-4-phenyl-thiazole-5-carboxylic acid and 2-(7-hydroxy-benzoimidazol-1-yl)-4-phenyl-thiazole-5-carboxylic acid [Example 7]”, 7470 nM. The figure for `COCCOc1cc2ncn(-c3nc(-c4ccccc4)c(C(=O)O)s3)c2cc1OCCOC` [Example 48, 2-[5,6-Bis-(2-methoxy-ethoxy)-benzoimidazol-1-yl]-4-phenyl-thiazole-5-carboxylic acid] is 819 nM.
